Converted amounts (≈) assume the structure as drawn. Like-named read-outs stand apart in the source and are kept apart here.
Columns and labels:
A. baumannii M2 = test: MIC by broth microdilution; assay type: cell-based; conditions: Acinetobacter baumannii; A. baumannii M2; CAMHB, aerobic; duplicate; read-out: MIC
[1] = test system: C. difficile isolate 20111163 (ribotype 024); test: MIC by broth microdilution; assay type: cell-based, Clostridium difficile; conditions: Clostridioides difficile; isolate 20111163, ribotype 024; duplicate; read-out: MIC
[2] = test system: C. difficile isolate 20121190 (ribotype 126); test: MIC by broth microdilution; assay type: cell-based, Clostridium difficile; conditions: Clostridioides difficile; isolate 20121190, ribotype 126; duplicate; read-out: MIC
S. epidermidis 1457 = test: MIC by broth microdilution; assay type: cell-based; conditions: Staphylococcus epidermidis; S. epidermidis 1457; CAMHB, aerobic; duplicate; read-out: MIC
[3] = test system: C. difficile isolate 20110869 (ribotype 001_072); test: MIC by broth microdilution; assay type: cell-based, Clostridium difficile; conditions: Clostridioides difficile; isolate 20110869, ribotype 001_072; duplicate; read-out: MIC
Hemolysis assay = assay type: cell-based; conditions: sheep, sheep red blood cells (3% suspension), pH 7.4; 32 µg/mL, 1 h, 37 °C; 1% Triton X-100 positive control; triplicate; read-out: Hemolysis (%)
Description: Sheep red blood cells (Innovative Research, Novi, MI, USA) were washed three times with PBS pH 7.4. A 3% cell suspension in PBS (100 μL) was added to test compounds in PBS (100 μL, to a final concentration of 32 μg/mL), and then incubated at 37 °C for 1 h. The plate was centrifuged at 500 × g for 10 min, and supernatants (100 μL) were transferred to a clean 96-well plate. Hemolysis was determined by measuring absorbance at 540 nm, with 1% Triton X-100 as the positive control and 0.5% DMSO in PBS as the negative control. Hemolysis assays were performed in triplicate.

[4] = test system: C. difficile isolate 20110986 (ribotype 078); test: MIC by broth microdilution; assay type: cell-based, Clostridium difficile; conditions: Clostridioides difficile; isolate 20110986, ribotype 078; duplicate; read-out: MIC
C. difficile strain 4118 [5] = test: Time-kill kinetics against stationary-phase cultures; assay type: cell-based, Clostridium difficile
Description: At t = 0, 3, 6 and 24 h, sample aliquots were withdrawn from the treated cultures and bacterial viability was scored by plating serial dilutions on BHIS agar plates. The agar plates were incubated in the anaerobic chamber for 20–24 h at 37 °C. Kinetic experiments were performed at least twice.

[6] = test system: C. difficile isolate 20100422 (ribotype 054); test: MIC by broth microdilution; assay type: cell-based, Clostridium difficile; conditions: Clostridioides difficile; isolate 20100422, ribotype 054; duplicate; read-out: MIC
[7] = test system: B. longum subsp. longum Strain 44B; test: MIC by broth microdilution; assay type: cell-based; conditions: Bifidobacterium longum; B. longum subsp. longum 44B; LSM broth, anaerobic; duplicate; read-out: MIC
C. difficile strain 4118 [8] = test: Minimum bactericidal concentration (MBC), logarithmic- and stationary-phase cells; assay type: cell-based, Clostridium difficile; conditions: 20–24 h; for MBC: Clostridioides difficile, 4118, n = 2
Description: The procedure for MBC determination was adapted from that of Alam et al.[44]. Briefly, a single overnight colony of C. difficile strain 4118 (streaked onto blood agar plate) was suspended in BHIS and grown to OD600 ~ 0.4–0.5 (logarithmic phase) or for 24 h (stationary phase). In 96-well microtiter plates, cultures were added to two-fold serial dilutions of test compounds in BHIS and incubated for 20–24 h at 37 °C in an anaerobic chamber. […] MBC measurements were performed in duplicate.

[9] = test system: B. fragilis Strain CL05T00C42; test: MIC by broth microdilution; assay type: cell-based; conditions: Bacteroides fragilis; B. fragilis CL05T00C42; supplemented Brucella broth, anaerobic; duplicate; read-out: MIC
[10] = test system: C. difficile isolate 20110566 (ribotype 020); test: MIC by broth microdilution; assay type: cell-based, Clostridium difficile; conditions: Clostridioides difficile; isolate 20110566, ribotype 020; duplicate; read-out: MIC
[11] = test system: C. difficile isolate 20100584 (ribotype 014); test: MIC by broth microdilution; assay type: cell-based, Clostridium difficile; conditions: Clostridioides difficile; isolate 20100584, ribotype 014; duplicate; read-out: MIC
C. sporogenes ATCC 15579 = test: MIC by broth microdilution; assay type: cell-based; conditions: Clostridium sporogenes, ATCC15579, BHIS, anaerobic, duplicate
[12] = test system: C. difficile isolate 20110973 (ribotype 106); test: MIC by broth microdilution; assay type: cell-based, Clostridium difficile; conditions: Clostridioides difficile; isolate 20110973, ribotype 106; duplicate; read-out: MIC
[13] = test system: B. thetaiotaomicron ATCC 29148; test: microbe, parasite or virus in culture; assay type: cell-based; conditions: Bacteroides thetaiotaomicron, ATCC29148
[14] = test system: C. difficile strain 4118 (CD4118, ATCC BAA-1870, ribotype 027); test: MIC by broth microdilution; assay type: cell-based, Clostridium difficile; conditions: Clostridioides difficile, ATCCBAA1870; BHIS broth, anaerobic, 20–24 h, n = 2; read-out: MIC C. difficile 4118
16 C. difficile isolates = test: MIC by broth microdilution, summary over 16 C. difficile isolates; assay type: cell-based, Clostridium difficile; conditions: for MIC50: MIC at which 50% of the 16 isolates are inhibited; for MIC90: MIC at which 90% of the 16 isolates are inhibited
S. aureus RN4220 = test: MIC by broth microdilution; assay type: cell-based; conditions: Staphylococcus aureus, CAMHB, aerobic, duplicate
[15] = test system: C. difficile isolate 20110961 (ribotype A12); test: MIC by broth microdilution; assay type: cell-based, Clostridium difficile; conditions: Clostridioides difficile; isolate 20110961, ribotype A12; duplicate; read-out: MIC
B. subtilis ATCC 6051 = test: MIC by broth microdilution; assay type: cell-based; conditions: Bacillus subtilis, ATCC6051; B. subtilis ATCC 6051; CAMHB, aerobic; duplicate; read-out: MIC
[16] = test system: B. breve Strain EX336960VC19; test: MIC by broth microdilution; assay type: cell-based; conditions: Bifidobacterium breve; B. breve EX336960VC19; LSM broth, anaerobic; duplicate; read-out: MIC
P. aeruginosa PAO1 = test: MIC by broth microdilution; assay type: cell-based; conditions: Pseudomonas aeruginosa; P. aeruginosa PAO1; CAMHB, aerobic; duplicate; read-out: MIC
[17] = test system: L. reuteri Strain CF48-3A; test: MIC by broth microdilution; assay type: cell-based, Lactobacillus reuteri; conditions: Limosilactobacillus reuteri; L. reuteri CF48-3A; CAMHB with 5% laked horse blood, ~48 h; duplicate; read-out: MIC
[18] = test system: C. difficile isolate 20110740 (ribotype 018); test: MIC by broth microdilution; assay type: cell-based, Clostridium difficile; conditions: Clostridioides difficile; isolate 20110740, ribotype 018; duplicate; read-out: MIC
[19] = test system: C. difficile isolate 20110742 (ribotype 002); test: MIC by broth microdilution; assay type: cell-based, Clostridium difficile; conditions: Clostridioides difficile; isolate 20110742, ribotype 002; duplicate; read-out: MIC
P. nigrescens ATCC 33563 = test: MIC by broth microdilution; assay type: cell-based; conditions: Prevotella nigrescens, ATCC33563; P. nigrescens ATCC 33563; supplemented Brucella broth, anaerobic; duplicate; read-out: MIC
[20] = test system: C. difficile isolate 20110960 (ribotype 017); test: MIC by broth microdilution; assay type: cell-based, Clostridium difficile; conditions: Clostridioides difficile; isolate 20110960, ribotype 017; duplicate; read-out: MIC
[21] = test system: C. clostridioforme ATCC 25537; test: MIC by broth microdilution; assay type: cell-based, Clostridium clostridioforme; conditions: Clostridium, ATCC25537; C. clostridioforme ATCC 25537; BHIS, anaerobic; duplicate; read-out: MIC
[22] = test system: C. difficile isolate 20121412 (ribotype 047); test: MIC by broth microdilution; assay type: cell-based, Clostridium difficile; conditions: Clostridioides difficile; isolate 20121412, ribotype 047; duplicate; read-out: MIC
[23] = test system: C. difficile isolate 20120016 (ribotype 019); test: MIC by broth microdilution; assay type: cell-based, Clostridium difficile; conditions: Clostridioides difficile; isolate 20120016, ribotype 019; duplicate; read-out: MIC
[24] = minimum bactericidal concentration (≥3-log reduction) for logarithmic-phase cells, read-out: MBClog
[25] = minimum bactericidal concentration (≥3-log reduction) for stationary-phase cells, read-out: MBCstat

Row | SMILES | MIC (A. baumannii M2) [µg/mL] | MIC [1] [µg/mL] | MIC [2] [µg/mL] | MIC (S. epidermidis 1457) [µg/mL] | MIC [3] [µg/mL] | hemolysis at 1 h, 32 µg/mL (Hemolysis assay) [%] | MIC [4] [µg/mL] | MIC [6] [µg/mL] | MIC [7] [µg/mL] | MBC (C. difficile strain 4118 [8]; [24]) [µg/mL] | MBC (C. difficile strain 4118 [8]; [25]) [µg/mL] | MIC [9] [µg/mL] | MIC [10] [µg/mL] | MIC [11] [µg/mL] | MIC (C. sporogenes ATCC 15579) [µg/mL] | MIC [12] [µg/mL] | MIC [14] [µg/mL] | MIC (S. aureus RN4220) [µg/mL] | MIC [15] [µg/mL] | MIC (B. subtilis ATCC 6051) [µg/mL] | other results
1 | O=C(Nc1ccc(Oc2ccc(Cl)cc2)cc1)c1cc(Cl)cc(Cl)c1O [Compound 8] | 32 (≈ 78.3 µM) | 0.13 (≈ 0.318 µM) | 0.25 (≈ 0.612 µM) | ≤ 0.03 | 0.06 to 0.13 (≈ 0.147 to 0.318 µM) | < 1 | 0.06 (≈ 0.147 µM) | 0.25 (≈ 0.612 µM) | 8 (≈ 19.6 µM) | 0.25 (≈ 0.612 µM) | 1 (≈ 2.45 µM) | 16 (≈ 39.2 µM) | 0.06 (≈ 0.147 µM) | 0.06 (≈ 0.147 µM) | 4 (≈ 9.79 µM) | 0.03 (≈ 0.0734 µM) | 0.06 (≈ 0.147 µM) | 0.13 (≈ 0.318 µM) | 0.13 (≈ 0.318 µM) | ≤ 0.03 | log decrease in the number of CFUs (C. difficile strain 4118 [5]; 4 × MIC, 24 h, stationary-phase CD4118): 2.4 log; time to eradicate >99.9% of viable cells (C. difficile strain 4118 [5]; 16× MIC (rafoxanide 2 μg/mL, closantel 4 μg/mL, compound 8 1 μg/mL), stationary-phase CD4118): 24 h; MIC ([13]; B. thetaiotaomicron ATCC 29148, supplemented Brucella broth, anaerobic, duplicate, read-out: MIC): > 32 µg/mL; MIC (16 C. difficile isolates; Clostridioides difficile, 14 isolates other than CD630 and CD4118, read-out: MIC values ranging, 14 other C. difficile isolates): 0.03 to 0.25 µg/mL (≈ 0.0734 to 0.612 µM); MIC50 (16 C. difficile isolates; n = 2): 0.06 µg/mL (≈ 0.147 µM); MIC90 (16 C. difficile isolates; n = 2): 0.25 µg/mL (≈ 0.612 µM); MIC [16]: 8 µg/mL (≈ 19.6 µM); MIC (P. aeruginosa PAO1): > 32 µg/mL; MIC [17]: 16 µg/mL (≈ 39.2 µM); MIC [18]: 0.06 µg/mL (≈ 0.147 µM); MIC [19]: 0.06 µg/mL (≈ 0.147 µM); MIC (P. nigrescens ATCC 33563): 4 µg/mL (≈ 9.79 µM); MIC [20]: 0.06 µg/mL (≈ 0.147 µM); MIC [21]: 4 µg/mL (≈ 9.79 µM); MIC [22]: 0.13 µg/mL (≈ 0.318 µM); MIC [23]: 0.13 µg/mL (≈ 0.318 µM)
2 | Cc1ncc([N+](=O)[O-])n1CCO [Metronidazole, metronidazole] | > 32 | 0.13 (≈ 0.76 µM) | 0.13 (≈ 0.76 µM) | > 32 | 0.25 (≈ 1.46 µM) | < 1 | 0.13 to 0.25 (≈ 0.76 to 1.46 µM) | 0.25 (≈ 1.46 µM) | 4 to 8 (≈ 23.4 to 46.7 µM) | > 32 | > 32 | 0.5 (≈ 2.92 µM) | 0.25 (≈ 1.46 µM) | 0.25 (≈ 1.46 µM) | 0.25 (≈ 1.46 µM) | 0.25 (≈ 1.46 µM) | 0.25 (≈ 1.46 µM) | > 32 | 0.25 (≈ 1.46 µM) | > 32 | log killing of CD4118 stationary-phase cells (C. difficile strain 4118 [5]; 16× MIC (metronidazole 4 μg/mL, vancomycin 32 μg/mL), up to 24 h): < 3 log; log reduction of CD4118 stationary-phase cells (C. difficile strain 4118 [8]; at 32 μg/mL): < 3 log; MIC [13]: 1 µg/mL (≈ 5.84 µM); MIC50 (16 C. difficile isolates; Clostridioides difficile, n = 2, read-out: MIC50): 0.25 µg/mL (≈ 1.46 µM); MIC90 (16 C. difficile isolates; Clostridioides difficile, n = 2, read-out: MIC90): 0.25 µg/mL (≈ 1.46 µM); MIC Range (16 C. difficile isolates; range over 16 C. difficile isolates, n = 2): 0.13 to 0.25 µg/mL; MIC [16]: > 32 µg/mL; MIC (P. aeruginosa PAO1): > 32 µg/mL; MIC [17]: > 32 µg/mL; MIC [18]: 0.25 µg/mL (≈ 1.46 µM); MIC [19]: 0.13 µg/mL (≈ 0.76 µM); MIC (P. nigrescens ATCC 33563): 2 µg/mL (≈ 11.7 µM); MIC [20]: 0.25 µg/mL (≈ 1.46 µM); MIC [21]: 0.06 µg/mL (≈ 0.351 µM); MIC [22]: 0.25 µg/mL (≈ 1.46 µM); MIC [23]: 0.25 µg/mL (≈ 1.46 µM)

Source: article PMC5025651, “Reprofiled anthelmintics abate hypervirulent stationary-phase Clostridium difficile” (Scientific Reports, 2016)
